The record followed here is ChEMBL document CHEMBL1146102, “Synthesis and structure-activity relationship of 3,4'-bispyridinylethylenes: discovery of a potent 3-isoquinolinylpyridine inhibitor of protein kinase B (PKB/Akt) for the treatment of cancer” (Bioorg Med Chem Lett, 2006).

Test [1] has as its target T1, RAC-alpha serine/threonine-protein kinase (Homo sapiens, UniProt P31749). The test can be described thus: Inhibition of Akt1 at 50 uM.
Test [2] addresses Casein kinase II (Homo sapiens, UniProt P19784+P67870+P68400). As to the kind of experiment: Inhibition of CK2 at 10 uM ATP. Type of test: protein-complex assay.
Test [3] concerns the target Proto-oncogene tyrosine-protein kinase Src (Homo sapiens, UniProt P12931). The test can be described thus: Inhibition of SRC kinase at 1.0 mM ATP.
Test [4] deals with T1, RAC-alpha serine/threonine-protein kinase. The test can be described thus: Activity against GSK3 phosphorylation in FL5.12-Akt1 cells. Type of test: functional, cell-based.
For test [5], the target named is RAC-gamma serine/threonine-protein kinase (Homo sapiens, UniProt Q9Y243). The test can be described thus: Inhibition of Akt3 at 10 uM ATP.
Chain of RAC-gamma serine/threonine-protein kinase (Q9Y243 whole entry): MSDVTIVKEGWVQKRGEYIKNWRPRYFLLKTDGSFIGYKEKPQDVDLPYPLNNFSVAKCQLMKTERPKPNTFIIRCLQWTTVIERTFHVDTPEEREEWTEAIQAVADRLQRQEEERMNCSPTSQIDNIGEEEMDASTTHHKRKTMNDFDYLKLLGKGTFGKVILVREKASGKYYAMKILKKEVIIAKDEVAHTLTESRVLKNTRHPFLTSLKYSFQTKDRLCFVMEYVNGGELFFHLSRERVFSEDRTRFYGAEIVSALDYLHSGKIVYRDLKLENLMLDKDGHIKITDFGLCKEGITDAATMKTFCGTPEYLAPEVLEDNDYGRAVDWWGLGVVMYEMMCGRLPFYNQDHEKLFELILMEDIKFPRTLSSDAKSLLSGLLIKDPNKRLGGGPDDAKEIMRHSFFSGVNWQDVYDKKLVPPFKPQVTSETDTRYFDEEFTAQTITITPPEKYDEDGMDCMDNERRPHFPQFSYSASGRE
Test [6] addresses Mitogen-activated protein kinase 1 (Homo sapiens, UniProt P28482). The test can be described thus: Inhibition of ERK2 at 10 uM ATP.
Test [7] concerns the target Protein kinase C gamma type (Homo sapiens, UniProt P05129). The test can be described thus: Inhibition of PKCgamma at 10 uM ATP.
Test [8] addresses Vascular endothelial growth factor receptor 3 (Homo sapiens, UniProt P35916). The test can be described thus: Inhibition of FLt4 at 1.0 mM ATP.
Test [9] concerns the target T2, Serine/threonine-protein kinase Chk1 (Homo sapiens, UniProt O14757).
T2 sequence (O14757 whole entry): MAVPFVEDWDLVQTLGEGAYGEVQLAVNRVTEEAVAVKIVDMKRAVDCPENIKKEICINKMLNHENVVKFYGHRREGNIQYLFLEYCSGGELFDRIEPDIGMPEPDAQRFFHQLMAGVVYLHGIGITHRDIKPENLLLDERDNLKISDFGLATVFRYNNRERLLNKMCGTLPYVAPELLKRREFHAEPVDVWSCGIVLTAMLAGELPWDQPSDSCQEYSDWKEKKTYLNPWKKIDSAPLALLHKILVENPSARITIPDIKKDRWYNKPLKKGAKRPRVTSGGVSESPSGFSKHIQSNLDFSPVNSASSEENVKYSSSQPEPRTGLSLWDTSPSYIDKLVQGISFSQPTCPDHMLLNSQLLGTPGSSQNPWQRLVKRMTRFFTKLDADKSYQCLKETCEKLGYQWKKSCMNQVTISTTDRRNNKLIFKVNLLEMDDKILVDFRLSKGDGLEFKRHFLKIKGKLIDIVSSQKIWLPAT
The test can be described thus: Inhibition of Chk1 at 10 uM ATP.

Test [10] addresses MAP kinase-activated protein kinase 2 (Homo sapiens, UniProt P49137). The test can be described thus: Inhibition of MAPKAP2 at 10 uM ATP.
Test [11] addresses Cyclin-dependent kinase 1 (Homo sapiens, UniProt P06493). The test can be described thus: Inhibition of CDK1 at 10 uM ATP.
Test [12] deals with Protein kinase C delta type (Homo sapiens, UniProt Q05655). As to the kind of experiment: Inhibition of PKCdelta at 10 uM ATP.
Chain of Protein kinase C delta type (Q05655 whole entry): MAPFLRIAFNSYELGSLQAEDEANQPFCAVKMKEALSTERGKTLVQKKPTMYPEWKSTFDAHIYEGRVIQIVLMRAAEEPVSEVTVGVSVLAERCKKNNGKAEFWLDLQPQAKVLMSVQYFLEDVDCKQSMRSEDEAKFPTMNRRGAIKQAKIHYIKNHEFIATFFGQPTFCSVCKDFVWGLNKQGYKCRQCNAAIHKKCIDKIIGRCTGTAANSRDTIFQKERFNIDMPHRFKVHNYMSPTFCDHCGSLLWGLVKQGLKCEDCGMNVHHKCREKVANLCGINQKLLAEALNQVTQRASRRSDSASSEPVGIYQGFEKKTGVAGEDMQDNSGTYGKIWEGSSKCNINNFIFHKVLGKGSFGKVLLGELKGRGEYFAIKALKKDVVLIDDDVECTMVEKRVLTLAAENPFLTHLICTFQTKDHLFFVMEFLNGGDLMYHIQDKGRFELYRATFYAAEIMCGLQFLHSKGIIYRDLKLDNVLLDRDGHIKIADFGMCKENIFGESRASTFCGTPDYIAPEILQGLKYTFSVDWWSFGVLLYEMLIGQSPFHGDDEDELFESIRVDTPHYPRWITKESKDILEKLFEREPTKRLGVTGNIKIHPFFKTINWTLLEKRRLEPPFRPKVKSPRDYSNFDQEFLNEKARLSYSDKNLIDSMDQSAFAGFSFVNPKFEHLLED

T1 sequence (P31749 whole entry): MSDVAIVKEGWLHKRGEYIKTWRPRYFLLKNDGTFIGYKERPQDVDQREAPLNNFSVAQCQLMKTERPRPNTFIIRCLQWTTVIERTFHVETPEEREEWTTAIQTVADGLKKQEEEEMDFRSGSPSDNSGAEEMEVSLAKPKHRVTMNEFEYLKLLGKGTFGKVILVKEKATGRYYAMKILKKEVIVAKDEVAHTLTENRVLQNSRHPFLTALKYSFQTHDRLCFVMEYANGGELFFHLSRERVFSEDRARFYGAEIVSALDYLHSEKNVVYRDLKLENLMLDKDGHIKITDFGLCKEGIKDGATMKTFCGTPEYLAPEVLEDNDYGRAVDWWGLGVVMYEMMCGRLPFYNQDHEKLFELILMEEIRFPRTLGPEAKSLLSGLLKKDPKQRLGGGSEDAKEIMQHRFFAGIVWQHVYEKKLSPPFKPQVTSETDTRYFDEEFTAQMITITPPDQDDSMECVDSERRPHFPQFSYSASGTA
Chain of Casein kinase II (P67870 whole entry): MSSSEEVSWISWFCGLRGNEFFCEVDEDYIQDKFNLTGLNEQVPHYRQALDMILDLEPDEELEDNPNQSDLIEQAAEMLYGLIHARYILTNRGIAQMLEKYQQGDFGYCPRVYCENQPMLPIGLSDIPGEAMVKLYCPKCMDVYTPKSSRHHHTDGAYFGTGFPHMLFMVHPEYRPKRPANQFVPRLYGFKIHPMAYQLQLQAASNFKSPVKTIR
Chain of Casein kinase II (P68400 whole entry): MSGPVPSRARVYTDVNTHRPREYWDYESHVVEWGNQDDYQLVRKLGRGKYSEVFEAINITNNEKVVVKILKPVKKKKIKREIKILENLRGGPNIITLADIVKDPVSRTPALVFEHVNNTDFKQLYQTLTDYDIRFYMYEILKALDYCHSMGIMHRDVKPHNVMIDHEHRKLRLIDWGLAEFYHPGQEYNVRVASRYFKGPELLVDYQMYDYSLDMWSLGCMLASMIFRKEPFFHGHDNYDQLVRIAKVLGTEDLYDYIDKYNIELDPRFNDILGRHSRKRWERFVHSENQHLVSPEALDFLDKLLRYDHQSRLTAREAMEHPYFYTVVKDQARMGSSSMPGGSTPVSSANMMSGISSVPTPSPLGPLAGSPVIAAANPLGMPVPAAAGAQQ
Chain of Casein kinase II (P19784 whole entry): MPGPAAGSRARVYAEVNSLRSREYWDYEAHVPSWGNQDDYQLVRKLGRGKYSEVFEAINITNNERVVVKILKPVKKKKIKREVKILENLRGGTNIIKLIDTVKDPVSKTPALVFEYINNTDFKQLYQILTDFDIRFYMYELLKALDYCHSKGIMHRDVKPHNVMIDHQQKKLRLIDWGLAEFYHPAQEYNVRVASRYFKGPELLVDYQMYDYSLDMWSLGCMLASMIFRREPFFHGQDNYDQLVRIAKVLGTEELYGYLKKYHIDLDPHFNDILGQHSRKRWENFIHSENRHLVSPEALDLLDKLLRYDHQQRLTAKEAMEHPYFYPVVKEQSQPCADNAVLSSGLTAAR
Chain of Mitogen-activated protein kinase 1 (P28482 whole entry): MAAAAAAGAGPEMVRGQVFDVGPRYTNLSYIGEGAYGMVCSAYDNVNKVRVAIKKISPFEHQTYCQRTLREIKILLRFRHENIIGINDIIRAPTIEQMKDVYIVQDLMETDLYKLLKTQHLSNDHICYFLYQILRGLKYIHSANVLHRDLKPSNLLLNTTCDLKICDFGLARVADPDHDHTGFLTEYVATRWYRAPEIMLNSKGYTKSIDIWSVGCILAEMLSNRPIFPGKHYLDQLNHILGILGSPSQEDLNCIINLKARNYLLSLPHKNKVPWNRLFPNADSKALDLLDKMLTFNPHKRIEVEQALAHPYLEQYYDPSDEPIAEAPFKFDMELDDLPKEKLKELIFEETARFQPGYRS
Chain of Cyclin-dependent kinase 1 (P06493 whole entry): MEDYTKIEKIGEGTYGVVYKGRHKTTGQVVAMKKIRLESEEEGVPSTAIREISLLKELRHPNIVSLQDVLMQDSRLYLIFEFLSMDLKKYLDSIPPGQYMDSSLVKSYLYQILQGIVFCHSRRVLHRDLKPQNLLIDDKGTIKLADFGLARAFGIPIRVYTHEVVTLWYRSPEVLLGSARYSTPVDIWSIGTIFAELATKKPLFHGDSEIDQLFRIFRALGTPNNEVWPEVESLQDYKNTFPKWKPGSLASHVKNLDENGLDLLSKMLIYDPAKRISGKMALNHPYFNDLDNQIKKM
Chain of Proto-oncogene tyrosine-protein kinase Src (P12931 2-536 limits assumed): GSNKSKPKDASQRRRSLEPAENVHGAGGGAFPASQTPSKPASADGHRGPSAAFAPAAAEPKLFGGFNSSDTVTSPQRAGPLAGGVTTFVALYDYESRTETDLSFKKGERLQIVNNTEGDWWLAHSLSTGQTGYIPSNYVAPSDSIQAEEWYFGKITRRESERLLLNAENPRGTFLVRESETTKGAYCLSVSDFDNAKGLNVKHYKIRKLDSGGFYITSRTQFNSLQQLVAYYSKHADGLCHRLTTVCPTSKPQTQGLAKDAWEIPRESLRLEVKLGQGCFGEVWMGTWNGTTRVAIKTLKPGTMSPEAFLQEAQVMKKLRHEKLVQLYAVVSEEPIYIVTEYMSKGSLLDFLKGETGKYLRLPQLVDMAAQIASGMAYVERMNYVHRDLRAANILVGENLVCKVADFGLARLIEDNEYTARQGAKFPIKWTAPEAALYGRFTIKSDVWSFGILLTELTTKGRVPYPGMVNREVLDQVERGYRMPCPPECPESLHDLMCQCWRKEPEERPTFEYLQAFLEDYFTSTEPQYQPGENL
Chain of MAP kinase-activated protein kinase 2 (P49137 whole entry): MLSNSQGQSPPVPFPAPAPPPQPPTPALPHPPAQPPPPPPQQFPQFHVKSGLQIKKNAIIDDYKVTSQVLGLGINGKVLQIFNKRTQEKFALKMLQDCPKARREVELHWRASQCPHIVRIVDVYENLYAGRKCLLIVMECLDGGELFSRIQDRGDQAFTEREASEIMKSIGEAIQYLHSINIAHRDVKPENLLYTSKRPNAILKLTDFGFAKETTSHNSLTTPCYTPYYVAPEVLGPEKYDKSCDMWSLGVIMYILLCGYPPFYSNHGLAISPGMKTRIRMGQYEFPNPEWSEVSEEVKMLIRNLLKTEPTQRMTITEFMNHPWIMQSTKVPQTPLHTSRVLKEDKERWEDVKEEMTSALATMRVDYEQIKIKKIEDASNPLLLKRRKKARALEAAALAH

As usually defined, the inhibition is the drop in the measured response relative to a control, in per cent. Read a low inhibition as a response near the control. `CC(=O)NCc1ccc(-c2cncc(OC[C@@H](N)Cc3c[nH]c4ccccc34)c2)cc1` gave an inhibition in [1] of 3%.

`N[C@H](COc1cncc(-c2ccc([N+](=O)[O-])cc2)c1)Cc1c[nH]c2ccccc12` gave an inhibition in test [1] of 13%.

`N[C@H](COc1cncc(-c2ccccc2-c2ccncc2)c1)Cc1c[nH]c2ccccc12` returned an inhibition in test [1] of 10%.

Consider `N[C@H](COc1cncc(NCc2ccncc2)c1)Cc1ccccc1`, for which the inhibition in [1] is 26%.

In turn, `N=C(NO)c1ccc(-c2cncc(OC[C@@H](N)Cc3c[nH]c4ccccc34)c2)cc1` had an inhibition in [1] of 48%.

The term IC50 denotes the concentration that gives 50% inhibition. One may read the EC50 as the concentration at which the effect is half-maximal. Read a low EC50 as a more potent agent. Take `N[C@H](COc1cncc(-c2ccc3cnccc3c2)c1)Cc1c[nH]c2ccccc12`: the IC50 is 11800 nM in test [2]; over 50000 nM in test [3]; 35 nM in test [5]; 910 nM in test [6]; 270 nM in [7]; over 50000 nM in test [8]. For the same compound, the IC50 is 4200 nM in [9], over 50000 nM in [10], 100 nM in test [11] and 6100 nM in test [12]. Also, the EC50 in [4] stood at 1500 nM.

`N=C(N)c1ccc(-c2cncc(OC[C@@H](N)Cc3c[nH]c4ccccc34)c2)cc1` had an inhibition in test [1] of 41%.

Consider `N[C@H](COc1cncc(-c2ccc(S(N)(=O)=O)cc2)c1)Cc1c[nH]c2ccccc12`, for which the inhibition in test [1] turned out to be 12%.

On to `N[C@H](COc1cncc(NCc2cccnc2)c1)Cc1ccccc1`, for which the inhibition in test [1] stood at 41%.

Turning to `N[C@H](COc1cncc(-c2cccc(S(N)(=O)=O)c2)c1)Cc1c[nH]c2ccccc12`, the inhibition in [1] is 0%.

As for `N[C@H](COc1cncc(NC(=O)c2cccnc2)c1)Cc1ccccc1`, the inhibition in [1] came to 26%.
